In patent publication US9650340B2, “5-fluoro-N-(pyridin-2-yl)pyridin-2-amine derivatives containing a sulfoximine group” (BAYER PHARMA AKTIENGESELLSCHAFT, priority 2012, dated 2017):

Key:
CDK9/CycT1 = molecular target: T1, CDK9/CycT1 (Homo sapiens, UniProt P50750); test: CDK9/CycT1 high ATP kinase assay (TR-FRET, 2 mM ATP); format: biochemical; settings: Method 1b
T1 construct: Recombinant full-length His-tagged human CDK9 and CycT1; His; purchased Invitrogen PV4131; host or cells: insect cells
Experimental: 1b. CDK9/CyeT1 High ATP Kinase Assay
CDK9/CycT1-inhibitory activity of compounds of the present invention at a high ATP concentration after preincubation of enzyme and test compounds was quantified employing the CDK9/CycT1 TR-FRET assay as described in the following paragraphs.
Recombinant full-length His-tagged human CDK9 and CycT1, expressed in insect cells and purified by Ni-NTA affinity chromatography, were purchase from Invitrogen (Cat. No PV4131). As substrate for the kinase reaction biotinylated peptide biotin-Ttds-[…] (C-terminus in amid form) was used which can be purchased e.g. form the company JERINI peptide technologies (Berlin, Germany). For the assay 50 nl of a 100 fold concentrated solution of the test compound in DMSO was pipetted into a black low volume 384 well microtiter plate (Greiner Bio-One, Frickenhausen, Germany), 2 μl of a solution of CDK9/CycT1 in aqueous assay buffer [50 mM Tris/HCl pH 8.0, 10 mM MgCl2, 1.0 mM dithiothreitol, 0.1 mM sodium ortho-vanadate, 0.01% (v/v) Nonidet-P40 (Sigma)] were added and the mixture was incubated for 15 min at 22° C. to allow pre-binding of the test compounds to the enzyme before the start of the kinase reaction. Then the kinase reaction was started by the addition of 3 μl of a solution of adenosine-tri-phosphate (ATP, 3.3 mM=>final conc. in the 5 μl assay volume is 2 mM) and substrate (1.67 μM=>final conc. in the 5 μl assay volume is 1 μM) in assay buffer and the resulting mixture was incubated for a reaction time of 25 min at 22° C.
The resulting mixture was incubated 1 h at 22° C. to allow the formation of complex between the phosphorylated biotinylated peptide and the detection reagents. Subsequently the amount of phosphorylated substrate was evaluated by measurement of the resonance energy transfer from the Eu-chelate to the streptavidine-XL. Therefore, the fluorescence emissions at 620 nm and 665 nm after excitation at 350 nm was measured in a HTRF reader, e.g. a Rubystar (BMG Labtechnologies, Offenburg, Germany) or a Viewlux (Perkin-Elmer). The ratio of the emissions at 665 nm and at 622 nm was taken as the measure for the amount of phosphorylated substrate.

CDK2/CycE = molecular target: T2, CDK2/CycE (Homo sapiens, UniProt P24941); test: CDK2/CycE high ATP kinase assay (TR-FRET, 2 mM ATP); format: biochemical; settings: Method 2b
T2 construct: GST; purchased ProQinase GmbH (Freiburg, Germany); host or cells: insect cells (Sf9)
Experimental: 2b. CDK2/CycE High ATP Kinase Assay:
CDK2/CycE-inhibitory activity of compounds of the present invention at 2 mM adenosine-tri-phosphate (ATP) was quantified employing the CDK2/CycE TR-FRET (TR-FRET=Time Resolved Fluorescence Energy Transfer) assay as described in the following paragraphs.
Recombinant fusion proteins of GST and human CDK2 and of GST and human CycE, expressed in insect cells (Sf9) and purified by Glutathion-Sepharose affinity chromatography, were purchase from ProQinase GmbH (Freiburg, Germany). As substrate for the kinase reaction biotinylated peptide biotin-Ttds-[…] (C-terminus in amid form) was used which can be purchased e.g. form the company JERINI peptide technologies (Berlin, Germany).
For the assay 50 nl of a 100 fold concentrated solution of the test compound in DMSO was pipetted into a black low volume 384 well microtiter plate (Greiner Bio-One, Frickenhausen, Germany), 2 μl of a solution of CDK2/CycE in aqueous assay buffer [50 mM Tris/HCl pH 8.0, 10 mM MgCl2, 1.0 mM dithiothreitol, 0.1 mM sodium ortho-vanadate, 0.01% (v/v) Nonidet-P40 (Sigma)] were added and the mixture was incubated for 15 min at 22° C. to allow pre-binding of the test compounds to the enzyme before the start of the kinase reaction. Then the kinase reaction was started by the addition of 3 μl of a solution ATP (3.33 mM=>final conc. in the 5 μl assay volume is 2 mM) and substrate (1.25 μM=>final conc. in the 5 μl assay volume is 0.75 μM) in assay buffer and the resulting mixture was incubated for a reaction time of 25 min at 22° C. The concentration of CDK2/CycE was adjusted depending of the activity of the enzyme lot and was chosen appropriate to have the assay in the linear range, typical concentrations were in the range of 15 ng/ml. The reaction was stopped by the addition of 5 μl of a solution of TR-FRET detection reagents (0.2 μM streptavidine-XL665 [Cisbio Bioassays, Codolet, France] and 1 nM anti-RB(pSer807/pSer811)-antibody from BD Pharmingen [#558389] and 1.2 nM LANCE EU-W1024 labeled anti-mouse IgG antibody [Perkin-Elmer, product no. AD0077, as an alternative a Terbium-cryptate-labeled anti-mouse IgG antibody from Cisbio Bioassays can be used]) in an aqueous EDTA-solution (100 mM EDTA, 0.2% (w/v) bovine serum albumin in 100 mM HEPES/NaOH pH 7.0).
The resulting mixture was incubated 1 h at 22° C. to allow the formation of complex between the phosphorylated biotinylated peptide and the detection reagents. Subsequently the amount of phosphorylated substrate was evaluated by measurement of the resonance energy transfer from the Eu-chelate to the streptavidine-XL. Therefore, the fluorescence emissions at 620 nm and 665 nm after excitation at 350 nm were measured in a TR-FRET reader, e.g. a Rubystar (BMG Labtechnologies, Offenburg, Germany) or a Viewlux (Perkin-Elmer). The ratio of the emissions at 665 nm and at 622 nm was taken as the measure for the amount of phosphorylated substrate.

T1 sequence (P50750 whole entry): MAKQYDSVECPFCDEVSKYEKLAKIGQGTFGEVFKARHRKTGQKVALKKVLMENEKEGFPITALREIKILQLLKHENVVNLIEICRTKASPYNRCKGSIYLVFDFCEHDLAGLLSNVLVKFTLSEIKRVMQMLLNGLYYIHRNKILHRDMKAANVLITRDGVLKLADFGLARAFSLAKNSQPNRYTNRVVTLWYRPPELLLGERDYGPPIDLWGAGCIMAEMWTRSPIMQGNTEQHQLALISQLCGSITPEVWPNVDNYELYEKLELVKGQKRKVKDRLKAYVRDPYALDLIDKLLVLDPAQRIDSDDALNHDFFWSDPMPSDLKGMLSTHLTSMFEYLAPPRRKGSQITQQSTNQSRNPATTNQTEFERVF
T1 sequence (O60563 whole entry partner): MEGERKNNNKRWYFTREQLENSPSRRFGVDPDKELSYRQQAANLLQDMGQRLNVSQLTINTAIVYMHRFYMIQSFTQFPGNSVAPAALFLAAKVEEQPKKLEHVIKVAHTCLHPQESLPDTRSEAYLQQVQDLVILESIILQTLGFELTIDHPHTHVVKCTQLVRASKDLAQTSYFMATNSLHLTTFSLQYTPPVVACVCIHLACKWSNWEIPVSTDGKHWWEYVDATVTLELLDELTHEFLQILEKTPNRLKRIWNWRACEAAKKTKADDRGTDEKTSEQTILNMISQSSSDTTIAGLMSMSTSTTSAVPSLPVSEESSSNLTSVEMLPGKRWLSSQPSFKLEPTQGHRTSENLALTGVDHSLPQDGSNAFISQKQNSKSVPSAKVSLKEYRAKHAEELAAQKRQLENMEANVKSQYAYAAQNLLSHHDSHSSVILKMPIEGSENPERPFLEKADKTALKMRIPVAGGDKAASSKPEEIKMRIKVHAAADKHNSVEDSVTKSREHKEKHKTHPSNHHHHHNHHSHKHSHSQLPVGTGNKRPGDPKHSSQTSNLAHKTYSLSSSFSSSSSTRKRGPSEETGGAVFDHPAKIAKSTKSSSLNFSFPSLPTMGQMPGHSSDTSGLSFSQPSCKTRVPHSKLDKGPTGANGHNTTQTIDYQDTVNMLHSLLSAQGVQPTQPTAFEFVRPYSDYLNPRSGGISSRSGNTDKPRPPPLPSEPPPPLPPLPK

IC50 (CDK9/CycT1) [nM] | IC50 (CDK2/CycE) [nM] | Structure (SMILES)
1 | 229 | COc1cc(F)ccc1-c1cc(Nc2cc(CS(C)(=N)=O)cc(C(F)F)n2)ncc1F (racemic) [Example 31, (rac)-N-{6-(Difluoromethyl)-4-[(S-methylsulfonimidoyl)methyl]pyridin-2-yl}-5-fluoro-4-(4-fluoro-2-methoxyphenyl)pyridin-2-amine]
19 | 1370 | COc1cc(F)ccc1-c1cc(Nc2cc(CS(C)(=N)=O)cc(F)n2)ncc1F (single isomer, unassigned; (+)) [Example 19, (+)-5-Fluoro-4-(4-fluoro-2-methoxyphenyl)-N-{6-fluoro-4-[(S-methylsulfonimidoyl)methyl]pyridin-2-yl}pyridin-2-amine]
1 | 233 | COc1cc(F)ccc1-c1cc(Nc2cc(CS(C)(=N)=O)cc(C(F)(F)F)n2)ncc1F (single isomer, unassigned; (+)) [Example 22, (+)-5-Fluoro-4-(4-fluoro-2-methoxyphenyl)-N-{4-[(S-methylsulfonimidoyl)methyl]-6-(trifluoromethyl)pyridin-2-yl}pyridin-2-amine]
2 | 1120 | COc1cc(F)ccc1-c1cc(Nc2cc(CS(C)(=N)=O)cc(C)n2)ncc1F (single isomer, unassigned; (+)) [Example 32, (+)-5-Fluoro-4-(4-fluoro-2-methoxyphenyl)-N-{6-methyl-4-[(S-methylsulfonimidoyl)methyl]pyridin-2-yl}pyridin-2-amine]
1 | 815 | COc1cc(F)ccc1-c1cc(Nc2cc(CS(C)(=N)=O)cc(F)n2)ncc1F (single isomer, unassigned; (-)) [Example 20, (−)-5-Fluoro-4-(4-fluoro-2-methoxyphenyl)-N-{6-fluoro-4-[(S-methylsulfonimidoyl)methyl]pyridin-2-yl}pyridin-2-amine]
2 | 283 | COc1cc(F)ccc1-c1cc(Nc2cc(CS(C)(=N)=O)cc(C(F)(F)F)n2)ncc1F (single isomer, unassigned; (-)) [Example 23, (−)-5-Fluoro-4-(4-fluoro-2-methoxyphenyl)-N-{4-[(S-methylsulfonimidoyl)methyl]-6-(trifluoromethyl)pyridin-2-yl}pyridin-2-amine]
1 | 680 | COc1cc(F)ccc1-c1cc(Nc2cc(CS(C)(=N)=O)cc(C)n2)ncc1F (single isomer, unassigned; (-)) [Example 33, (−)-5-Fluoro-4-(4-fluoro-2-methoxyphenyl)-N-{6-methyl-4-[(S-methylsulfonimidoyl)methyl]pyridin-2-yl}pyridin-2-amine]

The remaining lines, values behind:

Structure (SMILES) | IC50 (CDK9/CycT1) [nM] | IC50 (CDK2/CycE) [nM]
CCOc1cc(F)ccc1-c1cc(Nc2cc(CS(C)(=N)=O)cc(F)n2)ncc1F (racemic) [Example 26, (rac)-4-(2-Ethoxy-4-fluorophenyl)-5-fluoro-N-{6-fluoro-4-[(S-methylsulfonimidoyl)methyl]pyridin-2-yl}pyridin-2-amine] | 4 | 1200
CCOc1cc(F)ccc1-c1cc(Nc2cc(CS(C)(=O)=NC(=O)C(F)(F)F)cc(F)n2)ncc1F (racemic) [Example 27, (rac)-N-{[(2-{[4-(2-Ethoxy-4-fluoro-phenyl)-5-fluoropyridin-2-yl]amino}-6-fluoropyridin-4-yl)methyl]-(methyl)oxido-λ^6-sulfanylidene}-2,2,2-trifluoroacetamide] | 22 | ≥ 20000
CCS(=N)(=O)Cc1ccnc(Nc2cc(-c3ccc(F)cc3OC)c(F)cn2)c1 (racemic) [Example 30, (rac)-N-{4-[(S-Ethylsulfonimidoyl)-methyl]pyridin-2-yl}-5-fluoro-4-(4-fluoro-2-methoxyphenyl)pyridin-2-amine] | 5 | 300
COc1cc(F)ccc1-c1cc(Nc2cc(CS(C)(=O)=NC#N)ccn2)ncc1F (single isomer, unassigned) [Example 10, {[(2-{[5-Fluoro-4-(4-fluoro-2-methoxyphenyl)pyridin-2-yl]amino}pyridin-4-yl)methyl](methyl)oxido-λ^6-sulfanylidene}cyanamide] | 1 | 1420
COc1cc(F)ccc1-c1cc(Nc2cc(CS(C)(=O)=NC(=O)C(F)(F)F)cc(C(F)(F)F)n2)ncc1F (single isomer, unassigned; (+)) [Example 24, (+)-2,2,2-Trifluoro-N-[{[2-{[5-fluoro-4-(4-fluoro-2-methoxyphenyl)pyridin-2-yl]amino}-6-(trifluoromethyl)-pyridin-4-yl]methyl}(methyl)oxido-λ^6-sulfanylidene]acetamide] | 27 | 4000
CCOc1cc(F)ccc1-c1cc(Nc2cc(CS(C)(=N)=O)cc(F)n2)ncc1F (single isomer, unassigned; (+)) [Example 28, (+)-4-(2-Ethoxy-4-fluorophenyl)-5-fluoro-N-{6-fluoro-4-[(S-methylsulfonimidoyl)methyl]pyridin-2-yl}pyridin-2-amine] | 4 | 1170
COc1cc(F)ccc1-c1cc(Nc2cc(CS(C)(=O)=NC(=O)C(F)(F)F)cc(C(F)(F)F)n2)ncc1F (single isomer, unassigned; (-)) [Example 25, (−)-2,2,2-Trifluoro-N-[{[2-{[5-fluoro-4-(4-fluoro-2-methoxyphenyl)pyridin-2-yl]amino}-6-(trifluoromethyl)-pyridin-4-yl]methyl}(methyl)oxido-λ^6-sulfanylidene]acetamide] | 13 | 2640
CCOc1cc(F)ccc1-c1cc(Nc2cc(CS(C)(=N)=O)cc(F)n2)ncc1F (single isomer, unassigned; (-)) [Example 29, (−)-4-(2-Ethoxy-4-fluorophenyl)-5-fluoro-N-{6-fluoro-4-[(S-methylsulfonimidoyl)methyl]pyridin-2-yl}pyridin-2-amine] | 4 | 1710
